Assay results published in patent US12319701B2, “Antagonists of the muscarinic acetylcholine receptor M4” (priority 2019, dated 2025).

Legend:
Human M4 = target: T1, Human M4 (Homo sapiens, UniProt P08173); test: mAChR M4 cell-based functional assay (calcium flux, Fluo-4, M4/Gqi5/CHO-K1 cells); conditions: for remaining activity at 30 µM: CHO-K1, read-out: Human M4 Emin (%), % ACh maximum at 30 μM
T1 construct: expressed in transfected cells; host or cells: CHO-K1 (ATCC), stably co-expressing chimeric G protein Gqi5
T1 sequence (P08173 1-479): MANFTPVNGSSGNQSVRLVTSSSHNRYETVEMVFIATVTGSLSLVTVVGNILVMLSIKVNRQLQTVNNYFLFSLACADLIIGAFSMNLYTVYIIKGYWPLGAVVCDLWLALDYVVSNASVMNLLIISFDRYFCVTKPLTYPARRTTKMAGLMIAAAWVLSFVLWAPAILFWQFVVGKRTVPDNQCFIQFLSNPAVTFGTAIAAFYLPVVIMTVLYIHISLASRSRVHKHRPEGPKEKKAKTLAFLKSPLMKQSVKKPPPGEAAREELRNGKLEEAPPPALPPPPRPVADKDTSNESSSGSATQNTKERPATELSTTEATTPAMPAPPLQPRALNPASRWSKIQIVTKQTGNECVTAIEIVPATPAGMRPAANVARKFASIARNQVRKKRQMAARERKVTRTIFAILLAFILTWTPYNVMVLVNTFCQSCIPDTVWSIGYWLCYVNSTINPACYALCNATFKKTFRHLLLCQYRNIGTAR
Experimental: Human or rat M4 cDNA, along with the chimeric G protein Gqi5, were transfected into Chinese hamster ovary (CHO-K1) cells purchased from the American Type Culture Collection using Lipofectamine2000. M4/Gqi5/CHO cells were grown in Ham's F-12 medium containing 10% heat-inactivated fetal bovine serum (FBS), 20 mM HEPES, 500 μg/mL 418 sulfate, and 200 μg/mL Hygromycin B.
For high throughput measurement of agonist-evoked increases in intracellular calcium, CHO-K1 cells stably expressing muscarinic receptors were plated in growth medium lacking 418 and hygromycin at 15,000 cells/20 μL/well in Greiner 384-well black-walled, tissue culture (TC)-treated, clear-bottom plates (VWR). Cells were incubated overnight at 37° C. and 5% CO2. The next day, cells were washed using an ELX 405 (BioTek) with assay buffer; the final volume was then aspirated to 20 μL. Next, 20 μL of a 2.3 μM stock of Fluo-4/acetoxymethyl ester (Invitrogen, Carlsbad, CA), prepared as a 2.3 mM stock in DMSO and mixed in a 1:1 ratio with 10% (w/v) Pluronic F-127 and diluted in assay buffer, was added to the wells and the cell plates were incubated for 50 min at 37° C. and 5% CO2. Dye was removed by washing with the ELX 405 and the final volume was aspirated to 20 μL. Compound master plates were formatted in a 10 point concentration-response curve (CRC) format (1:3 dilutions) in 100% DMSO with a starting concentration of 10 or 1 mM using a BRAVO liquid handler (Agilent). Test compound CRCs were then transferred to daughter plates (240 nL) using the Echo acoustic plate reformatter (Labcyte, Sunnyvale, CA) and then diluted into assay buffer (40 μL) to a 2× stock using a Thermo Fisher Combi (Thermo Fisher Scientific, Waltham, MA).
Calcium flux was measured using the Functional Drug Screening System (FDSS) 6000 or 7000 (Hamamatsu Corporation, Tokyo, Japan) as an increase in the fluorescent static ratio. Compounds were applied to cells (20 μL, 2×) using the automated system of the FDSS at 2 seconds into the protocol and the data were collected at 1 Hz. At 143 s, 10 μL of an EC20 concentration of the muscarinic receptor agonist acetylcholine was added (5×), followed by the addition of 12 μL of an EC80 concentration of acetylcholine at the 268 s time point (5×). Agonist activity was analyzed as a concentration-dependent increase in calcium mobilization upon compound addition. Positive allosteric modulator activity was analyzed as a concentration-dependent increase in the EC20 acetylcholine response. Antagonist activity was analyzed as a concentration-dependent decrease in the ECK) acetylcholine response; for the purposes of the tables herein, an IC50 (inhibitory concentration 50) was calculated as a concentration-dependent decrease of the response elicited by an ECK) concentration of acetylcholine. Concentration-response curves were generated using a four-parameter logistical equation in XLFit curve fitting software (IDBS, Bridgewater, NJ) for Excel (Microsoft, Redmond, WA) or Prism (GraphPad Software, Inc., San Diego, CA) or the Dotmatics software platform (Dotmatics, Bishop's Stortford, UK).
Compounds were synthesized as described above. Activity (IC50 and Emin) was determined in the mAChR M4 cell-based functional assay as described above and the data are shown in Table 2.

[1] = tested on: catalepsy induced by the DA receptor antagonist haloperidol; test: Reversal of haloperidol-induced catalepsy by scopolamine in mice; type: in vivo
Excerpt: Furthermore, haloperidol-induced catalepsy, a model of parkinsonian motor disability, is reduced in M4 knockout mice as compared to wild-type controls. […] The reversal by scopolamine was uncommonly robust and more pronounced than we observe with agents targeting a number of other targets being evaluated for potential antiparkinsonian effects, including metabotropic glutamate (mGlu) receptors mGlu4 or mGlu5, A2A adenosine receptors, and NMDA receptors. […] Taken together with the extensive studies of M4 modulation of basal ganglia and motor function, these studies provide compelling evidence that M4 is the dominant mAChR subtype involved in the antiparkinsonian effects of non-selective mAChR antagonists and provide support for discovery and development of selective M4 antagonists for treatment of neurodegenerative disease such as PD, dystonia, tardive dyskinesia and other movement disorders.

Structure (SMILES)	IC50 (Human M4)	remaining activity at 30 µM (Human M4)	Reduction of haloperidol-induced catalepsy ([1]; M4 KO mice)	Reversal of haloperidol-induced catalepsy ([1]; WT mice)
c1ccc(-c2nnc(N[C@H]3C[C@@H]4CN(CC5CCOCC5)C[C@@H]4C3)c3ccsc23)cc1 [compound 8, 7-phenyl-N-((3aR,5s,6aS)-2-((tetrahydro-2H-pyran-4-yl)methyl)octahydrocyclopenta[c]pyrrol-5-yl)thieno[2,3-d]pyridazin-4-amine]	4.72 nM	3%		
c1ccc(-c2nnc(N[C@H]3C[C@@H]4CN(CC5CCOCC5)C[C@@H]4C3)c3sccc23)cc1 [compound 14, 4-phenyl-N-((3aR,5s,6aS)-2-((tetrahydro-2H-pyran-4-yl)methyl)octahydrocyclopenta[c]pyrrol-5-yl)thieno[2,3-d]pyridazin-7-amine]	1.46 nM	4%		
CN1[C@@H]2C[C@@H](OC(=O)[C@H](CO)c3ccccc3)C[C@H]1[C@@H]1O[C@@H]12 [scopolamine]			ineffective in reducing catalepsy	completely reversed
Cn1cc2cc(-c3nnc(N[C@H]4C[C@@H]5CN(CC6CCOCC6)C[C@@H]5C4)c4ccsc34)ccc2n1 [compound 9, 7-(2-methyl-2H-indazol-5-yl)-N-((3aR,5s,6aS)-2-((tetrahydro-2H-pyran-4-yl)methyl)octahydrocyclopenta[c]pyrrol-5-yl)thieno[2,3-d]pyridazin-4-amine]	2.96 nM	3%		
Cc1ccc(F)cc1-c1nnc(N[C@H]2C[C@@H]3CN(CC4CCOCC4)C[C@@H]3C2)c2ccsc12 [compound 3, 7-(5-fluoro-2-methylphenyl)-N-((3aR,5s,6aS)-2-((tetrahydro-2H-pyran-4-yl)methyl)octahydrocyclopenta[c]pyrrol-5-yl)thieno[2,3-d]pyridazin-4-amine]	5.11 nM	3%		

More lines, main results first:

IC50 (Human M4)	remaining activity at 30 µM (Human M4)	Structure (SMILES)	Reduction of haloperidol-induced catalepsy ([1]; M4 KO mice)	Reversal of haloperidol-induced catalepsy ([1]; WT mice)
2.31 nM	3%	Fc1ccccc1-c1nnc(N[C@H]2C[C@@H]3CN(CC4CCOCC4)C[C@@H]3C2)c2sccc12 [compound 15, 4-(2-fluorophenyl)-N-((3aR,5s,6aS)-2-((tetrahydro-2H-pyran-4-yl)methyl)octahydrocyclopenta[c]pyrrol-5-yl)thieno[2,3-d]pyridazin-7-amine]		
7690 nM	15%	Fc1ccccc1-c1nnc(N[C@H]2C[C@@H]3CN(CC4CCOCC4)C[C@@H]3C2)c2ccsc12 [compound 7, 7-(2-fluorophenyl)-N-((3aR,5s,6aS)-2-((tetrahydro-2H-pyran-4-yl)methyl)octahydrocyclopenta[c]pyrrol-5-yl)thieno[2,3-d]pyridazin-4-amine]		
3 nM	3%	[2H]C([2H])(C1CCOCC1)N1C[C@H]2C[C@H](Nc3nnc(-c4cc(F)ccc4F)c4sccc34)C[C@H]2C1 [compound 18, 7-(2,5-difluorophenyl)-N-((3aR,5s,6aS)-2-((tetrahydro-2H-pyran-4-yl)methyl-d2)octahydrocyclopenta[c]pyrrol-5-yl)thieno[2,3-d]pyridazin-4-amine]		
0.697 nM	3%	Cn1cc2cc(-c3nnc(N[C@H]4C[C@@H]5CN(CC6CCOCC6)C[C@@H]5C4)c4sccc34)ccc2n1 [compound 13, 4-(2-methyl-2H-indazol-5-yl)-N-((3aR,5s,6aS)-2-((tetrahydro-2H-pyran-4-yl)methyl)octahydrocyclopenta[c]pyrrol-5-yl)thieno[2,3-d]pyridazin-7-amine]		
204 nM	3%	Clc1nnc(N[C@H]2C[C@@H]3CN(CC4CCOCC4)C[C@@H]3C2)c2ccsc12 [compound 1, 7-chloro-N-((3aR,5s,6aS)-2-((tetrahydro-2H-pyran-4-yl)methyl)octahydrocyclopenta[c]pyrrol-5-yl)thieno[2,3-d]pyridazin-4-amine]		
9.04 nM	3%	Fc1cccc(-c2nnc(N[C@H]3C[C@@H]4CN(CC5CCOCC5)C[C@@H]4C3)c3c2CCCC3)c1 [compound 25, 4-(3-fluorophenyl)-N-((3aR,5s,6aS)-2-((tetrahydro-2H-pyran-4-yl)methyl)octahydrocyclopenta[c]pyrrol-5-yl)-5,6,7,8-tetrahydrophthalazin-1-amine]		
